What was measured:
rRrNIT = molecular target: T1, rRrNIT (Rhodococcus rhodochrous, UniProt Q02068); assay: specific activity, Bertholet ammonia assay; assay type: biochemical; conditions: 50 mM substrate, pH 7.5, 45 °C
T1 construct: synthetic gene expressed in E. coli BL21(DE3), purified
T1 sequence (Q02068 1-383): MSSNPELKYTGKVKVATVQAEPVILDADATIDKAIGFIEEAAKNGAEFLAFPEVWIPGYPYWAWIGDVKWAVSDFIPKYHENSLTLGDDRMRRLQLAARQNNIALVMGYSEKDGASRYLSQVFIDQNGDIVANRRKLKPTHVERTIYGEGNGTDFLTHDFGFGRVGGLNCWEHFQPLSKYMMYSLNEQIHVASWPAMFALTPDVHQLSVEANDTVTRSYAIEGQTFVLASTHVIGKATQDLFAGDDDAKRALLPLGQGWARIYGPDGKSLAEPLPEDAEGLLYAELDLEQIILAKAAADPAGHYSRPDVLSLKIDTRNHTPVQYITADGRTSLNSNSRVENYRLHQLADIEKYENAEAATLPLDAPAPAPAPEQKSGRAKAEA

rBdNIT = molecular target: T2, rBdNIT (Bradyrhizobium diazoefficiens, UniProt Q89PT3); assay: specific activity, Bertholet ammonia assay; assay type: biochemical; conditions: 50 mM substrate, pH 7.5, 45 °C
T2 construct: gene blr3397; synthetic gene expressed in E. coli BL21(DE3), purified
T2 sequence (Q89PT3 1-321): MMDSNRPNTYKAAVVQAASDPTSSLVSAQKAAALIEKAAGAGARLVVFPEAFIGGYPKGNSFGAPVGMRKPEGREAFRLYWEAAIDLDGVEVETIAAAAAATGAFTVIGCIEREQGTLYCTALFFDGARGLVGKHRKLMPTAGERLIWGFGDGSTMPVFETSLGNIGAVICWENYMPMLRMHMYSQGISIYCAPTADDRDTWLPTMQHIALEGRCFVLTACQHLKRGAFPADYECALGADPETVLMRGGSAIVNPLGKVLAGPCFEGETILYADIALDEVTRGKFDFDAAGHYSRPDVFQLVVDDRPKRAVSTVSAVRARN

| SMILES | specific activity, Bertholet ammonia assay (rRrNIT) | specific activity, Bertholet ammonia assay (rBdNIT) |
| --- | --- | --- |
| C=CCC#N [3-butenenitrile] | rRrNIT from Rhodococcus rhodochrous | rBdNIT from Bradyrhizobium diazoefficiens |
| C=CCCC#N [4-pentenenitrile] | rRrNIT from Rhodococcus rhodochrous | rBdNIT from Bradyrhizobium diazoefficiens |
